Laboratory results reported in patent US8232402B2, “Quinolinone farnesyl transferase inhibitors for the treatment of synucleinopathies and other indications” (Link Medicine Corporation, priority 2008, dated 2012).

Key:
[1] = target: recombinant farnesyl transferase (FTase) (Homo sapiens, UniProt P49354+P49356); experiment: In vitro farnesyl transferase assay (fluorescent dansyl-pentapeptide); format: biochemical; conditions: in vitro and in vivo
Source text: These neuroblastoma cells can be differentiated into dopaminergic cells and are useful for assessing the pathogenesis of Parkinson's disease (PD). […] Similar findings were found in vivo. […] IC50 values for various inventive compounds have been determined in in vitro assays using recombinant farnesyl transferase and a dansylated pentapeptide substrate. For a description of the assay used, see Cassidy et al., Methods Enzymol. 250:30-43, 1995, which is incorporated herein by reference. […] The compounds were also found to inhibit the farnesylation of Ras in cells treated with the test compound. IC50 values in vivo range from about 0.5 nM to about 25 μM.
Compounds were analyzed for inhibition of farnesyl transferase (FTase) activity using an established fluorescent peptide-based assay (Pompliano et al 1992 J. Am. Chem. Soc. 114:7945; U.S. Pat. No. 5,525,479, issued Jun. 11, 1996; each of which is incorporated herein by reference). In summary, a dansyl-pentapeptide (dGCVLS) (SEQ ID NO: 8) was incubated at […] with […] farnesyl pyrophosphate (FPP) and 25-50 nM FTase in 50 mM Tris-HC1/12 mM MgC12/[…]/6 mM DTT/0.2% octyl-D- -glucopyranoside/pH 7.0 at room temperature while the increase in fluorescence of the peptide at Ex =340 nm , Em =485 nm upon farnesyl addition was monitored continuously by a spectrofluorometer. […]

α-synuclein inclusions = experiment: Inclusion histology in α-synuclein transgenic mice (α-synuclein and ubiquitin immunostaining, Campbell-Switzer); format: in vivo; conditions: for α-synuclein-positive cells per mm^2 versus vehicle: cortex and hippocampus
Description: (§1) Farnesyl transferase inhibitors Zarnestra and OSI-754 were administered to mice of the α-synuclein transgenic line described in Masliah et al. (Masliah et al. “Dopaminergic loss and inclusion body formation in alpha-synuclein mice: implications for neurodegenerative disorders” Science 287(5456): 1265-69, 2000; incorporated herein by reference). Animals from this line have α-synuclein neuronal inclusions in the cortex, hippocampus, and the olfactory bulb (Masliah et al. “Dopaminergic loss and inclusion body formation in alpha-synuclein mice: implications for neurodegenerative disorders” Science 287(5456): 1265-69, 2000; incorporated herein by reference). Transgenic mice were orally administered either FTI in 20% cyclodextrin solution or the same volume of vehicle alone twice a day for 30 or 90 days. In some cases, non-transgenic mice also received vehicle twice a day for 30 to 90 days. At the end of treatment, mice were sacrificed, and the brains removed and hemisected. One hemisphere of each was fixed in 4% paraformaldehyde/PBS (pH 7.4), cryoperserved, then sectioned for histology. The other hemisphere was subdivided into four brain regions, including the cortex and hippocampus, that were homogenized and processed into cytoplasmic and membrane fractions.
Formation of α-synuclein inclusions in the cortex and hippocampus was probed by immunostaining with an antibody for human α-synuclein. Cells positive for human α-synuclein were quantified. […] These regions were also analyzed for ubiquitin-immunoreactive inclusions and by the Campbell Switzer method of silver staining. Ubiquitin is known to be a constituent of Lewy bodies and in the α-synculein inclusions found in the transgenic mouse line used in the study (Masliah et al. “Dopaminergic loss and inclusion body formation in alpha-synuclein mice: implications for neurodegenerative disorders” Science 287(5456): 1265-69, 2000; incorporated herein by reference). […] Campbell-Switzer staining is a general marker of Lewy Body type inclusions (Uchihara et al. “Silver stainings distinguish Lewy bodies and glial cytoplasmic inclusions: comparison between Gallyas-Braak and Campbell-Switzer methods” Acta Neuropathol (Berl) 110(3):255-60, 2005; incorporated herein by reference).
Formation of α-synuclein inclusions in the cortex and hippocampus was probed by immunostaining with an antibody for human α-synuclein. Cells positive for human α-synuclein were quantified.

α-synuclein = α-synuclein sandwich ELISA in brain fractions of α-synuclein transgenic mice; format: in vivo
Description: as §1
Total α-synuclein levels were analyzed by a sandwich ELISA assay similar to one previously described (El-Agnaf et al. “Detection of oligomeric forms of alpha-synuclein protein in human plasma as a potential biomarker for Parkinson's disease” FASEB J. 20(3):419-25, 2006; incorporated herein by reference). In the cortex of vehicle treated animals, α-synuclein protein levels in the α-synuclein transgenic line are greater than in non-transgenic mice in both cytoplasmic (FIG. 10) and membrane fractions (FIG. 11). Transgenic mice that received Zarnestra had lower α-synuclein protein levels than vehicle-treated transgenic mice and nearly the same as that detected in the non-transgenic group in both the cytoplasmic (FIG. 10) and membrane fractions (FIG. 11), which represent soluble and insoluble α-synuclein, respectively. Farnesylated UCH-L1 in the cortex is contained in the membrane fraction. The amount of UCH-L1 was determined by quantitative Western Blot.

farnesylated UCH-L1 = experiment: Farnesylated UCH-L1 in cortex membrane fraction of α-synuclein transgenic mice (quantitative Western blot); format: in vivo; conditions: normalized to actin, 45 mg/kg twice a day, 30 days
Description: Farnesyl transferase inhibitors Zarnestra and OSI-754 were administered to mice of the α-synuclein transgenic line described in Masliah et al. (Masliah et al. “Dopaminergic loss and inclusion body formation in alpha-synuclein mice: implications for neurodegenerative disorders” Science 287(5456): 1265-69, 2000; incorporated herein by reference). Animals from this line have α-synuclein neuronal inclusions in the cortex, hippocampus, and the olfactory bulb (Masliah et al. “Dopaminergic loss and inclusion body formation in alpha-synuclein mice: implications for neurodegenerative disorders” Science 287(5456): 1265-69, 2000; incorporated herein by reference). […]
Total α-synuclein levels were analyzed by a sandwich ELISA assay similar to one previously described (El-Agnaf et al. “Detection of oligomeric forms of alpha-synuclein protein in human plasma as a potential biomarker for Parkinson's disease” FASEB J. 20(3):419-25, 2006; incorporated herein by reference). […] Transgenic mice that received Zarnestra had lower α-synuclein protein levels than vehicle-treated transgenic mice and nearly the same as that detected in the non-transgenic group in both the cytoplasmic (FIG. 10) and membrane fractions (FIG. 11), which represent soluble and insoluble α-synuclein, respectively. […] The amount of UCH-L1 was determined by quantitative Western Blot. […]

[2] = test system: Neuronal Specific Nuclear Protein (NeuN); experiment: NeuN staining of cortex and hippocampus of α-synuclein transgenic mice; format: in vivo; conditions: 90 days
[3] = α-synuclein transgenic mice, summary, dose not given

C#Cc1cccc(-c2cc(=O)n(C)c3ccc(C(O)(c4ccc(Cl)cc4)c4cncn4C)cc23)c1 (stereo not drawn) [LNK-754]
inhibition of the farnesylation of proteins and/or peptides [1]: inhibit the farnesylation of proteins and/or peptides in vitro and in vivo | inclusions versus vehicle (α-synuclein inclusions; 9 mg/kg twice a day, 90 days): fewer inclusions | inclusions versus vehicle (α-synuclein inclusions; 45 mg/kg twice a day, 90 days): fewer inclusions | α-synuclein-positive cells per mm^2 versus vehicle (α-synuclein inclusions; 9 mg/kg twice a day, 90 days): fewer α-synuclein-positive cells per mm^2 | α-synuclein-positive cells per mm^2 versus vehicle (α-synuclein inclusions; 45 mg/kg twice a day, 90 days): fewer α-synuclein-positive cells per mm^2 | inclusions versus vehicle (α-synuclein inclusions; [3]): fewer inclusions | levels of α-synuclein protein (ELISA) (α-synuclein; cortex and hippocampus, 9 mg/kg twice a day, 90 days): decreased levels of α-synuclein protein | levels of α-synuclein protein (ELISA) (α-synuclein; cortex and hippocampus, 45 mg/kg twice a day, 90 days): decreased levels of α-synuclein protein | levels of α-synuclein protein (ELISA) (α-synuclein; cortex, cytoplasmic and membrane fractions, 45 mg/kg twice a day, 30 days): decreased levels of α-synuclein protein | levels of α-synuclein in the cortex (α-synuclein; [3]): decrease levels of α-synuclein in the cortex | amount of farnesylated UCH-L1 (farnesylated UCH-L1): decreased the amount of farnesylated UCH-L1 | neuronal morphology or density (NeuN staining) [2]: did not affect neuronal morphology or density
